Results on one compound are retold here after patent publication US7931791B2, “Method of detecting analyte-biomolecule interactions” (Southern Illinois University Carbondale, priority 2006, dated 2011).

One test deals with T1, BSA (Bos taurus, UniProt P02769).
T1 construct: purchased Fisher Scientific (Fairlawn, N.J.)
Description: progesterone ligand binding assay by capillary IEF with fluorescence anisotropy, reference protein. Particulars: ~100 nM of each labeled protein, 100 nM fluorescein labeled progesterone, 1% ampholytes, focused at 300V; FIG. 9D.

Test [1] concerns lysate from MCF-7 breast cancer cells. Description: DIABLA progesterone-protein interactions in a cell lysate. It is filed as binding. Particulars: MCF-7 breast cancer cell lysate, protocols as in Example 6. The procedure:
The detection sensitivity of DIABLA was tested by examining progesterone-protein interactions in a lysate from MCF-7 breast cancer cells. The experimental protocols were essentially as described above in Example 6, except that a cell lysate was used rather than pure proteins. Five different protein targets that interact with progesterone were identified. FIG. 11 presents one of the targets.

T1 sequence (P02769 25-607): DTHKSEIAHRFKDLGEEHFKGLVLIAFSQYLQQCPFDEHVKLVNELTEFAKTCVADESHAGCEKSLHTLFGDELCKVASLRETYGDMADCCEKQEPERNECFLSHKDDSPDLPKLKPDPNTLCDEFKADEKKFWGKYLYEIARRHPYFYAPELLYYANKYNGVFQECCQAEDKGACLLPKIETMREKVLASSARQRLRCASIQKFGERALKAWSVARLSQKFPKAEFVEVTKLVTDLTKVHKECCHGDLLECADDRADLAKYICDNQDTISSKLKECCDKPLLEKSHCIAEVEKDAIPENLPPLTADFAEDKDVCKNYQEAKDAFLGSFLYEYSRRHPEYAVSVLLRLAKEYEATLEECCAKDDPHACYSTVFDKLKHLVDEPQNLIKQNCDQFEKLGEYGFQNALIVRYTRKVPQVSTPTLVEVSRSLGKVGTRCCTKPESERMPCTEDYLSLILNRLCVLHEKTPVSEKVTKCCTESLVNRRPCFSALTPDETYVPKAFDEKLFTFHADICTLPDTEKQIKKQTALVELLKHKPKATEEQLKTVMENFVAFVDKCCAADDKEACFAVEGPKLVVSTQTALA
Description for BSA: Chemicals. Acetic acid, ammonium acetate, hydroxypropyl cellulose (HPC, avg. MW 100,000), HPLC grade dimethylsulfoxide (DMSO), HPLC grade water, BSA, and phosphate buffered saline (PBS, pH 7.4) were obtained from Fisher Scientific (Fairlawn, N.J.). Ampholytes (Pharmolyte 3-10 for IEF) were obtained from Amersham Biosciences (Piscataway, N.J.).
Sample Preparation. TRITC-labeled proteins were prepared according to manufacturer's protocol. […] TRITC was dissolved in DMSO at 1 mg/mL. The TRITC solution was added to the protein sample, and incubated in the dark for 2 hours.
Focusing Capillaries. 75 μm i.d., 360 μm o.d. fused silica capillaries (Polymicro, Phoenix, Ariz.) were coated with hydroxypropyl cellulose (HPC) by filling the capillaries with a 5% HPC solution and then baking them at 200° C. for 45 minutes. This treatment effectively eliminated the electroosmotic flow in the capillary.
cIEF. […]
Fluorescence anisotropy. Fluorescence emission was viewed using a Leica inverted microscope with a 10× long range objective in an epifluorescence configuration. […]
Since the microscope was operated in epifluorescence mode, it was not possible to measure a true anisotropy value. […] Since both the parallel and perpendicular emission intensities were not measured, the anisotropy value could be calculated, but this configuration did permit the detection of areas with increased anisotropies.

For `CC(=O)[C@H]1CC[C@H]2[C@@H]3CCC4=CC(=O)CC[C@]4(C)[C@H]3CC[C@]12C` [progesterone], at BSA, the “anisotropy in the region containing the focused BSA band” value is given as “no or low anisotropy”. Besides, the “number of protein targets that interact with progesterone identified” value in test [1] is given as “Five”.
